# From patent US20050124498A1, “Halobenzyl substituted phenylaceto esters and amides and use thereof for prevention of harmful organisms” (priority 2002, published 2005)
# Legend:
# [1] = system: Erysiphe graminis f.sp. hordei; assay: Erysiphe test (barley)/protective; type: in vivo; details: Blumeria graminis, 168 h, protective, application rate 500 g/ha, evaluation 7 days after inoculation, read-out: efficacy
# Description: Erysiphe test (barley)/protective [table] To produce a suitable preparation of active compound, 1 part by weight of active compound is mixed with the stated amounts of solvent and emulsifier, and the concentrate is diluted with water to the desired concentration. To test for protective activity, young plants are sprayed with the preparation of active compound at the stated application rate. After the spray coating has dried on, the plants are dusted with spores of Erysiphe graminis f.sp. hordei. The plants are placed in a greenhouse at a temperature of about 20° C. and a relative atmospheric humidity of about 80% to promote the development of mildew pustules.
# Sphaerotheca fuliginea = assay: Sphaerotheca test (cucumber)/protective; type: in vivo; details: Podosphaera fuliginea, 168 h, protective, application rate 100 g/ha, evaluation 7 days after inoculation, read-out: efficacy
# Description: (§1) Sphaerotheca test (cucumber)/protective [table] To produce a suitable preparation of active compound, 1 part by weight of active compound is mixed with the stated amounts of solvent and emulsifier, and the concentrate is diluted with water to the desired concentration. To test for protective activity, young plants are sprayed with the preparation of active compound at the stated application rate. After the spray coating has dried on, the plants are inoculated with an aqueous spore suspension of Sphaerotheca fuliginea. The plants are then placed in a greenhouse at about 23° C. and about 70% relative atmospheric humidity.
# [2] = system: apple scab pathogen Venturia inaequalis; assay: Venturia test (apple)/protective; type: in vivo; details: 240 h, protective, application rate 100 g/ha, evaluation 10 days after inoculation, read-out: efficacy
# Description: Venturia test (apple)/protective […] To produce a suitable preparation of active compound, 1 part by weight of active compound is mixed with the stated amounts of solvent and emulsifier, and the concentrate is diluted with water to the desired concentration. To test for protective activity, young plants are sprayed with the preparation of active compound at the stated application rate. After the spray coating has dried on, the plants are inoculated with an aqueous conidia suspension of the apple scab pathogen Venturia inaequalis and then remain in an incubation cabin at about 20° C. and 100% relative atmospheric humidity for 1 day. The plants are then placed in a greenhouse at about 21° C. and a relative atmospheric humidity of about 90%.
# Phytophthora infestans = assay: whole plant or invertebrate; type: in vivo; details: in Solanum lycopersicum, 72 h, read-out: efficacy
# [3] = system: apple mildew pathogen Podosphaera leucotricha; assay: Podosphaera test (apple)/protective; type: in vivo; details: 240 h, protective, application rate 100 g/ha, evaluation 10 days after inoculation, read-out: efficacy
# Description: as §1, with “Podosphaera” for “Sphaerotheca”, “(apple)/protective” for “(cucumber)/protective”, “the apple mildew pathogen Podosphaera leucotricha.” for “Sphaerotheca fuliginea.”
compound,measurement,setting,value
"CO/N=C(/C(=O)OC)c1c(F)cccc1Oc1ccccc1 [Example 3, methyl (2-fluoro-6-phenoxyphenyl)methoxyiminoacetate]",chromatographic logP,"physchem; pH 2, log P (pH 2)",3.24
same,pest or weed control at 500 g/ha,[1],≥ 98%
"CNC(=O)/C(=N/OC)c1c(F)cccc1Oc1ccccc1 [Example 4, 2-(2-fluoro-6-phenoxyphenyl)-2-methoxyimino-N-methylacetamide]",chromatographic logP,"physchem; pH 2, log P (pH 2)",2.56
same,pest or weed control at 500 g/ha,[1],≥ 98%
"CNC(=O)/C(=N/OC)c1ccc(F)cc1Oc1ncnc(Oc2ccccc2Cl)c1F [Example 7, N-methyl-2-{2-[6-(2-chlorophenoxy)-5-fluoropyrimidin-4-yloxy]-4-fluorophenyl}-2-methoxyiminoacetamide]",pest or weed control at 100 g/ha,Sphaerotheca fuliginea,≥ 98%
same,chromatographic logP,"physchem; pH 2, log P (pH 2)",3.14
same,pest or weed control at 100 g/ha,[2],≥ 97%
same,pest or weed control at 100 g/ha,Phytophthora infestans,≥ 86%
"CNC(=O)/C(=N/OC)c1c(F)cccc1COc1ccccc1C [Example 9, N-methyl-2-(2-fluoro-6-o-tolyloxymethylphenyl)-2-methoxyiminoacetamide]",pest or weed control at 100 g/ha,Sphaerotheca fuliginea,≥ 98%
same,pest or weed control at 100 g/ha,[3],≥ 82%
same,chromatographic logP,"physchem; pH 2, log P (pH 2)",3.03
same,pest or weed control at 100 g/ha,[2],≥ 97%
same,pest or weed control at 100 g/ha,Phytophthora infestans,≥ 86%
CNC(=O)/C(=N/OC)c1ccc(F)cc1Oc1ncnc(Oc2cccc(Cl)c2C)c1F [Example 10],chromatographic logP,physchem; logP,3.62
same,pest or weed control at 500 g/ha,[1],≥ 98%
CNC(=O)/C(=N/OC)c1ccc(F)cc1Oc1ncnc(Oc2ccccc2C#N)c1F [Example 11],chromatographic logP,physchem; logP,2.68
CNC(=O)/C(=N/OC)c1ccc(F)cc1Oc1nc(C)c(Cl)c(OCC(F)(F)C(F)(F)F)n1 [Example 13],chromatographic logP,physchem; logP,3.58
CNC(=O)/C(=N/OC)c1ccc(F)cc1Oc1ncnc(Oc2ccccc2C)c1F [Example 15],pest or weed control at 100 g/ha,Sphaerotheca fuliginea,≥ 98%
same,pest or weed control at 100 g/ha,[3],≥ 82%
same,chromatographic logP,physchem; logP,3.2
same,pest or weed control at 100 g/ha,[2],≥ 97%
same,pest or weed control at 100 g/ha,Phytophthora infestans,≥ 86%
CNC(=O)/C(=N/OC)c1ccc(F)cc1Oc1ncnc(Oc2cccc(F)c2)c1F [Example 17],chromatographic logP,physchem; logP,3.07
CNC(=O)/C(=N/OC)c1ccc(F)cc1Oc1ncnc(Oc2cccc(C#N)c2)c1F [Example 18],chromatographic logP,physchem; logP,2.71
CNC(=O)/C(=N/OC)c1ccc(F)cc1Oc1ncnc(Oc2cccc(OC)c2)c1F [Example 19],chromatographic logP,physchem; logP,2.91
CNC(=O)/C(=N/OC)c1ccc(F)cc1Oc1ncnc(Oc2ccccc2OC)c1F [Example 20],chromatographic logP,physchem; logP,2.82
CNC(=O)/C(=N/OC)c1ccc(F)cc1Oc1ncnc(Oc2cccc(Cl)c2)c1F [Example 21],chromatographic logP,physchem; logP,3.31
CNC(=O)/C(=N/OC)c1ccc(F)cc1Oc1ncnc(Oc2ccccc2SC)c1F [Example 23],chromatographic logP,physchem; logP,3.07
CNC(=O)/C(=N/OC)c1ccc(F)cc1Oc1ncnc(Oc2ccc(SC)cc2)c1F [Example 24],chromatographic logP,physchem; logP,3.24
CNC(=O)/C(=N/OC)c1ccc(F)cc1Oc1ncnc(Oc2cc(C)ccc2Cl)c1F [Example 25],chromatographic logP,physchem; logP,3.45
CNC(=O)/C(=N/OC)c1ccc(F)cc1Oc1ncnc(Oc2ccc(F)cc2Cl)c1F [Example 26],chromatographic logP,physchem; logP,3.27
CNC(=O)/C(=N/OC)c1ccc(F)cc1Oc1ncnc(Oc2ccccc2OC(C)C)c1F [Example 27],chromatographic logP,physchem; logP,3.32
CNC(=O)/C(=N/OC)c1ccc(F)cc1Oc1ncnc(Oc2ccc(SC)c(C)c2)c1F [Example 28],chromatographic logP,physchem; logP,3.54
CNC(=O)/C(=N/OC)c1ccc(F)cc1Oc1ncnc(Oc2ccc(OC)cc2Cl)c1F [Example 29],chromatographic logP,physchem; logP,3.2
CNC(=O)/C(=N/OC)c1ccc(F)cc1Oc1ncnc(Oc2cccc(C(F)(F)F)c2)c1F [Example 30],chromatographic logP,physchem; logP,3.46
CNC(=O)/C(=N/OC)c1ccc(F)cc1Oc1ncnc(Oc2ccc(C(F)(F)F)cc2)c1F [Example 32],chromatographic logP,physchem; logP,3.49
CNC(=O)/C(=N/OC)c1ccc(F)cc1Oc1ncnc(Oc2cccc(Cl)c2Cl)c1F [Example 33],pest or weed control at 100 g/ha,Sphaerotheca fuliginea,≥ 98%
same,pest or weed control at 100 g/ha,[3],≥ 82%
same,chromatographic logP,physchem; logP,3.53
same,pest or weed control at 100 g/ha,[2],≥ 97%
same,pest or weed control at 100 g/ha,Phytophthora infestans,≥ 86%
CNC(=O)/C(=N/OC)c1ccc(F)cc1Oc1ncnc(Oc2ccccc2Br)c1F [Example 34],chromatographic logP,physchem; logP,3.22
CNC(=O)/C(=N/OC)c1ccc(F)cc1Oc1ncnc(Oc2ccccc2OC(F)(F)F)c1F [Example 35],pest or weed control at 100 g/ha,Sphaerotheca fuliginea,≥ 98%
same,pest or weed control at 100 g/ha,[3],≥ 82%
same,chromatographic logP,physchem; logP,3.27
same,pest or weed control at 100 g/ha,[2],≥ 97%
CNC(=O)/C(=N/OC)c1ccc(F)cc1Oc1ncnc(Oc2cccc(OC(F)(F)F)c2)c1F [Example 36],chromatographic logP,physchem; logP,3.46
CNC(=O)/C(=N/OC)c1ccc(F)cc1Oc1ncnc(Oc2ccc(Br)cc2C)c1F [Example 37],chromatographic logP,physchem; logP,3.57
CNC(=O)/C(=N/OC)c1ccc(F)cc1Oc1ncnc(Oc2ccc(OC(F)(F)F)cc2C)c1F [Example 38],chromatographic logP,physchem; logP,3.71
CNC(=O)/C(=N/OC)c1ccc(F)cc1Oc1ncnc(Oc2ccc(SC(F)(F)F)cc2)c1F [Example 39],chromatographic logP,physchem; logP,3.75
CNC(=O)/C(=N/OC)c1ccc(F)cc1Oc1nccc(OCC(F)(F)C(F)(F)F)n1 [Example 40],chromatographic logP,physchem; logP,2.87
same,pest or weed control at 500 g/ha,[1],≥ 98%
CNC(=O)/C(=N\OC)c1c(F)cccc1Oc1ccccc1 [Example 41],chromatographic logP,physchem; logP,2.49
same,pest or weed control at 500 g/ha,[1],≥ 98%
CO/N=C(\C(=O)OC)c1c(F)cccc1Oc1ncnc(Oc2cccc(Cl)c2C)c1F [Example 42],chromatographic logP,physchem; logP,4.41
same,pest or weed control at 500 g/ha,[1],≥ 98%
CO/N=C(\C(=O)OC)c1c(F)cccc1Oc1ccccc1 [Example 43],chromatographic logP,physchem; logP,3.42
same,pest or weed control at 500 g/ha,[1],≥ 98%
CNC(=O)/C(=N/OC)c1c(F)cccc1Oc1nccc(OCC(F)(F)C(F)(F)F)n1 [Example 44],chromatographic logP,physchem; logP,2.89
same,pest or weed control at 500 g/ha,[1],≥ 98%
CO/N=C(/C(=O)OC)c1c(F)cccc1CO/N=C1\CCc2ccc(OC)cc21 [Example 49],chromatographic logP,physchem; logP,3.65
CNC(=O)/C(=N/OC)c1c(F)cccc1CO/N=C1\CCc2ccc(OC)cc21 [Example 52],chromatographic logP,physchem; logP,3.08
CO/N=C(/C(=O)OC)c1c(F)cccc1Oc1cc(C(F)(F)F)ncn1 [Example 53],chromatographic logP,physchem; logP,2.91
CO/N=C(\C(C)=N\OCc1cccc(F)c1/C(=N\OC)C(=O)OC)c1ccc(F)cc1F [Example 54],chromatographic logP,physchem; logP,4.13
CNC(=O)/C(=N/OC)c1c(F)cccc1CO/N=C(C)/C(=N\OC)c1ccc(F)cc1F [Example 55],chromatographic logP,physchem; logP,3.57
CNC(=O)/C(=N/OC)c1c(F)cccc1CO/N=C(C)/C(=N\OC)c1ccc(C)cc1 [Example 58],chromatographic logP,physchem; logP,3.71
CNC(=O)/C(=N/OC)c1c(F)cccc1CO/N=C(C)/C(=N\OC)c1ccc(F)cc1 [Example 59],chromatographic logP,physchem; logP,3.5
"CO/N=C(/C(=O)OC)c1c(O)cccc1F [Example (II-1), methyl (2-fluoro-6-hydroxyphenyl)methoxyiminoacetate]",chromatographic logP,"physchem; pH 2, log P (pH 2)",1.67
"CNC(=O)/C(=N/OC)c1c(O)cccc1F [Example (II-2), 2-(2-fluoro-6-hydroxyphenyl)-2-methoxyimino-N-methylacetamide]",chromatographic logP,"physchem; pH 2, log P (pH 2)",1.18
"CO/N=C(/C(=O)OC)c1ccc(F)cc1O [Example (II-3), methyl (4-fluoro-2-hydroxyphenyl)methoxyiminoacetate]",chromatographic logP,"physchem; pH 2, log P (pH 2)",2.62
"CNC(=O)/C(=N/OC)c1ccc(F)cc1O [Example (II-4), 2-(4-fluoro-2-hydroxyphenyl)-2-methoxyimino-N-methylacetamide]",chromatographic logP,"physchem; pH 2, log P (pH 2)",1.56
"COC(=O)C(=O)c1c(F)cccc1OC1CCCCO1 (stereo not drawn) [Example (XIII-1), methyl [2-fluoro-6-(tetrahydropyran-2-yloxy)phenyl]oxoacetate]",chromatographic logP,"physchem; pH 2, log P (pH 2)",2.78
"COC(=O)C(=O)c1ccc(F)cc1O [Example (XIV-1), methyl (4-fluoro-2-hydroxyphenyl)oxo-acetate]",chromatographic logP,"physchem; pH 2, log P (pH 2)",2.1
"COC(=O)C(=O)c1c(C)cccc1F [Example (XIX-1), methyl (2-fluoro-6-methylphenyl)oxoacetate]",chromatographic logP,"physchem; pH 2, log P (pH 2)",2.44
"CO/N=C(/C(=O)OC)c1c(C)cccc1F [Example (XVIII-1), methyl (2-fluoro-6-methylphenyl)methoxyiminoacetate]",chromatographic logP,"physchem; pH 2, log P (pH 2)",2.43
